This is an account of results in patent publication US20250171498A1, “ANTIBIOTIC COMPOUNDS, FORMULATIONS AND METHODS OF USE” (UNIVERSITEIT LEIDEN, priority 2022, published 2025).

Common to all, as to assay type: cell-based
Series [1] has as its system P. Aeruginosa (ATCC 27853). To be noted: ATCC 27853. Here is the method:
(§1) Compounds were prepared according to scheme 2, 3, 4, 6, 7, or 8 above, preparing different sets of compounds with different substitution patterns. All polymyxin analogues prepared were tested for their anti-bacterial activity on relevant Gram-negative strains (Table B). Polymyxin B and PMBN were taken along as references. In addition, the toxicity on renal Proximal Tubular Epithelial Cells (PTECs) was evaluated.
(§2) 3rd Generation compounds were also subjected to testing for their anti-bacterial activity on relevant Gram-negative strains (Table C). Polymyxin B and PMBN were taken along as references. In addition, the toxicity on renal Proximal Tubular Epithelial Cells (PTECs) was evaluated, see Table C.

In series [2] the test system is renal Proximal Tubular Epithelial Cells (PTECs). Briefly: Toxicity on renal Proximal Tubular Epithelial Cells. The procedure:
as §1, §2

In a further series the test system is E. Coli (ATCC 25922). To be noted: ATCC 25922. Here is the method: as §1, §2
The subject of series [3] is K. Pneumoniae (ATCC 13883). The conditions noted are these: ATCC 13883. Here is the method:
as §1, §2

SMILES strings stand for the structures. Converted amounts (≈) assume the structure as drawn. Where a SMILES comes first, the peptide text is derived from it. Bridges are numbered along the chain shown (N, C = ends). [ ]: non-standard residue; d: D form. The star is where a group is joined. Phenylthio(4-OPh) = c1ccc(Oc2ccc(S*)cc2)cc1; S(2-cyclohexylethyl) = C1CCC(CCS*)CC1; S(3-Cl-benzyl) = Clc1cccc(CS*)c1; X3 = O=C(OCCSSCc1cccc(Cl)c1)*; S(3-Methylbutyl) = CC(C)CCS*; X4 = c1ccc(-c2ccc(S*)cc2)cc1; dDap = NC[C@@H](N)C(=O)O; Dab = NCC[C@H](N)C(=O)O; X2 = CC(C)CCSSCCOC(=O)*; Dap = NC[C@H](N)C(=O)O; X5 = CC(C)CCCCS*; Mpa = O=C(O)CCS

For `CC(C)CCSSC[C@H](N)C(=O)N[C@H](C(=O)N[C@@H](CCN)C(=O)N[C@H]1CCNC(=O)[C@H]([C@@H](C)O)NC(=O)[C@H](CCN)NC(=O)[C@H](CCN)NC(=O)[C@H](CC(C)C)NC(=O)[C@@H](Cc2ccccc2)NC(=O)[C@H](CCN)NC1=O)[C@@H](C)O` (H-C(S(3-Methylbutyl))T[Dab][Dab][Dab][dF]L[Dab][Dab]T; lactam 4-C), the “MIC P. Aeruginosa (ATCC 27853)” value in series [1] is 2 µg/mL (≈ 1.71 µM). In addition, the “PTEC Toxicity (relative to polymyxin B)” value in series [2] was 9.8.

For `CC(C)CCSSCCOC(=O)N[C@H](C(=O)N[C@@H](CCN)C(=O)N[C@H]1CCNC(=O)[C@H]([C@@H](C)O)NC(=O)[C@H](CCN)NC(=O)[C@H](CCN)NC(=O)[C@H](CC(C)C)NC(=O)[C@@H](Cc2ccccc2)NC(=O)[C@H](CCN)NC1=O)[C@@H](C)O` (X2-T[Dab][Dab][Dab][dF]L[Dab][Dab]T; lactam 3-C), the “MIC E. Coli (ATCC 25922)” value against E. Coli (ATCC 25922) was 8 µg/mL (≈ 6.84 µM). For the same compound, the “MIC P. Aeruginosa (ATCC 27853)” value in series [1] is 2 µg/mL (≈ 1.71 µM). For the same compound, in series [3], the “MIC K. Pneumoniae (ATCC 13883)” value turned out to be 8 µg/mL (≈ 6.84 µM). The “PTEC Toxicity (relative to polymyxin B)” value in series [2] is recorded as 0.9.

Take `CC(C)CCSSCCOC(=O)N[C@H](C(=O)N[C@@H](CN)C(=O)N[C@H]1CCNC(=O)[C@H]([C@@H](C)O)NC(=O)[C@H](CCN)NC(=O)[C@H](CCN)NC(=O)[C@H](CC(C)C)NC(=O)[C@@H](Cc2ccccc2)NC(=O)[C@H](CCN)NC1=O)[C@@H](C)O` (X2-T[Dap][Dab][Dab][dF]L[Dab][Dab]T; lactam 3-C): the “MIC E. Coli (ATCC 25922)” value with E. Coli (ATCC 25922) came to 4 µg/mL (≈ 3.46 µM). Besides, the “MIC P. Aeruginosa (ATCC 27853)” value in series [1] worked out at 2 µg/mL (≈ 1.73 µM). Further, the “MIC K. Pneumoniae (ATCC 13883)” value in series [3] is 2 µg/mL (≈ 1.73 µM).

Turning to `CC(C)CCSSCCOC(=O)N[C@H](C(=O)N[C@H](CN)C(=O)N[C@H]1CCNC(=O)[C@H]([C@@H](C)O)NC(=O)[C@H](CCN)NC(=O)[C@H](CCN)NC(=O)[C@H](CC(C)C)NC(=O)[C@@H](Cc2ccccc2)NC(=O)[C@H](CCN)NC1=O)[C@@H](C)O` (X2-T[dDap][Dab][Dab][dF]L[Dab][Dab]T; lactam 3-C), the “MIC E. Coli (ATCC 25922)” value against E. Coli (ATCC 25922) amounted to 4 µg/mL (≈ 3.46 µM). Besides, in series [1], the “MIC P. Aeruginosa (ATCC 27853)” value was determined as 2 µg/mL (≈ 1.73 µM). Moreover, the “MIC K. Pneumoniae (ATCC 13883)” value in series [3] came to 2 µg/mL (≈ 1.73 µM). The “PTEC Toxicity (relative to polymyxin B)” value in series [2] came out at 2.9.

Take `CC(C)CCSSCCOC(=O)N[C@H](C(=O)N[C@H](CO)C(=O)N[C@H]1CCNC(=O)[C@H]([C@@H](C)O)NC(=O)[C@H](CCN)NC(=O)[C@H](CCN)NC(=O)[C@H](CC(C)C)NC(=O)[C@@H](Cc2ccccc2)NC(=O)[C@H](CCN)NC1=O)[C@@H](C)O` (X2-T[dS][Dab][Dab][dF]L[Dab][Dab]T; lactam 3-C): the “MIC E. Coli (ATCC 25922)” value in the series with E. Coli (ATCC 25922) came to 4 µg/mL (≈ 3.46 µM). Also, the “MIC P. Aeruginosa (ATCC 27853)” value in series [1] stood at 4 µg/mL (≈ 3.46 µM). The “MIC K. Pneumoniae (ATCC 13883)” value in series [3] was 2 µg/mL (≈ 1.73 µM).

For the compound `CC(C)C[C@@H]1NC(=O)[C@@H](Cc2ccccc2)NC(=O)[C@H](CCN)NC(=O)[C@@H](NC(=O)[C@H](CCN)NC(=O)[C@@H](NC(=O)OCCSSCc2cccc(Cl)c2)[C@@H](C)O)CCNC(=O)[C@H]([C@@H](C)O)NC(=O)[C@H](CCN)NC(=O)[C@H](CCN)NC1=O` (X3-T[Dab][Dab][Dab][dF]L[Dab][Dab]T; lactam 3-C), the “MIC E. Coli (ATCC 25922)” value with E. Coli (ATCC 25922) was found to be 4 µg/mL (≈ 3.27 µM). Moreover, the “MIC P. Aeruginosa (ATCC 27853)” value in series [1] is 1 µg/mL (≈ 0.817 µM). Also, in series [3], the “MIC K. Pneumoniae (ATCC 13883)” value was determined as 1 µg/mL (≈ 0.817 µM). In addition, in series [2], the “PTEC Toxicity (relative to polymyxin B)” value turned out to be 1.3.

With `CC(C)C[C@@H]1NC(=O)[C@@H](Cc2ccccc2)NC(=O)[C@H](CCN)NC(=O)[C@@H](NC(=O)[C@H](CN)NC(=O)[C@@H](NC(=O)OCCSSCc2cccc(Cl)c2)[C@@H](C)O)CCNC(=O)[C@H]([C@@H](C)O)NC(=O)[C@H](CCN)NC(=O)[C@H](CCN)NC1=O` (X3-T[Dap][Dab][Dab][dF]L[Dab][Dab]T; lactam 3-C), in the series with E. Coli (ATCC 25922), the “MIC E. Coli (ATCC 25922)” value was 8 µg/mL (≈ 6.61 µM). Also, the “MIC P. Aeruginosa (ATCC 27853)” value in series [1] came out at 4 µg/mL (≈ 3.31 µM). Also, the “MIC K. Pneumoniae (ATCC 13883)” value in series [3] was determined as 4 µg/mL (≈ 3.31 µM). The “PTEC Toxicity (relative to polymyxin B)” value in series [2] is listed as 0.8.

As to `CC(C)C[C@@H]1NC(=O)[C@@H](Cc2ccccc2)NC(=O)[C@H](CCN)NC(=O)[C@@H](NC(=O)[C@H](CCN)NC(=O)[C@@H](NC(=O)CCSSc2ccc(Oc3ccccc3)cc2)[C@@H](C)O)CCNC(=O)[C@H]([C@@H](C)O)NC(=O)[C@H](CCN)NC(=O)[C@H](CCN)NC1=O` ([Mpa](Phenylthio(4-OPh))T[Dab][Dab][Dab][dF]L[Dab][Dab]T; lactam 4-C), in the series with E. Coli (ATCC 25922), the “MIC E. Coli (ATCC 25922)” value was determined as 8 µg/mL (≈ 6.39 µM). For the same compound, the “MIC P. Aeruginosa (ATCC 27853)” value in series [1] stood at 2 µg/mL (≈ 1.6 µM). For the same compound, the “MIC K. Pneumoniae (ATCC 13883)” value in series [3] turned out to be 2 µg/mL (≈ 1.6 µM).

Turning to `CC(C)C[C@@H]1NC(=O)[C@@H](Cc2ccccc2)NC(=O)[C@H](CCN)NC(=O)[C@@H](NC(=O)[C@H](CCN)NC(=O)[C@@H](NC(=O)CCSSCCC2CCCCC2)[C@@H](C)O)CCNC(=O)[C@H]([C@@H](C)O)NC(=O)[C@H](CCN)NC(=O)[C@H](CCN)NC1=O` ([Mpa](S(2-cyclohexylethyl))T[Dab][Dab][Dab][dF]L[Dab][Dab]T; lactam 4-C), the “MIC E. Coli (ATCC 25922)” value against E. Coli (ATCC 25922) is 4 µg/mL (≈ 3.35 µM). Moreover, in series [1], the “MIC P. Aeruginosa (ATCC 27853)” value was determined as 2 µg/mL (≈ 1.68 µM). In series [3], the “MIC K. Pneumoniae (ATCC 13883)” value is 2 µg/mL (≈ 1.68 µM).

As for `CC(C)C[C@@H]1NC(=O)[C@@H](Cc2ccccc2)NC(=O)[C@H](CCN)NC(=O)[C@@H](NC(=O)[C@H](CCN)NC(=O)[C@@H](NC(=O)CCSSc2ccc(-c3ccccc3)cc2)[C@@H](C)O)CCNC(=O)[C@H]([C@@H](C)O)NC(=O)[C@H](CCN)NC(=O)[C@H](CCN)NC1=O` ([Mpa](X4)T[Dab][Dab][Dab][dF]L[Dab][Dab]T; lactam 4-C), the “MIC E. Coli (ATCC 25922)” value in the series on E. Coli (ATCC 25922) worked out at 8 µg/mL (≈ 6.47 µM). Also, the “MIC P. Aeruginosa (ATCC 27853)” value in series [1] turned out to be 4 µg/mL (≈ 3.24 µM). The “MIC K. Pneumoniae (ATCC 13883)” value in series [3] came to 2 µg/mL (≈ 1.62 µM).

Take `CC(C)CCCCSSCCC(=O)N[C@H](C(=O)N[C@@H](CCN)C(=O)N[C@H]1CCNC(=O)[C@H]([C@@H](C)O)NC(=O)[C@H](CCN)NC(=O)[C@H](CCN)NC(=O)[C@H](CC(C)C)NC(=O)[C@@H](Cc2ccccc2)NC(=O)[C@H](CCN)NC1=O)[C@@H](C)O` ([Mpa](X5)T[Dab][Dab][Dab][dF]L[Dab][Dab]T; lactam 4-C): the “MIC E. Coli (ATCC 25922)” value with E. Coli (ATCC 25922) turned out to be 4 µg/mL (≈ 3.39 µM). For the same compound, in series [1], the “MIC P. Aeruginosa (ATCC 27853)” value worked out at 2 µg/mL (≈ 1.69 µM). Also, in series [3], the “MIC K. Pneumoniae (ATCC 13883)” value came to 2 µg/mL (≈ 1.69 µM).

As for `CC(C)C[C@@H]1NC(=O)[C@@H](Cc2ccccc2)NC(=O)[C@H](CCN)NC(=O)[C@@H](NC(=O)[C@H](CCN)NC(=O)[C@@H](NC(=O)[C@H](N)CSSCCC2CCCCC2)[C@@H](C)O)CCNC(=O)[C@H]([C@@H](C)O)NC(=O)[C@H](CCN)NC(=O)[C@H](CCN)NC1=O` [drawing 87] (H-[dC](S(2-cyclohexylethyl))T[Dab][Dab][Dab][dF]L[Dab][Dab]T; lactam 4-C), the “MIC E. Coli (ATCC 25922)” value against E. Coli (ATCC 25922) is 1 µg/mL (≈ 0.827 µM). For the same compound, the “MIC P. Aeruginosa (ATCC 27853)” value in series [1] is 2 µg/mL (≈ 1.65 µM). In addition, the “PTEC Toxicity (relative to polymyxin B)” value in series [2] is recorded as 1.2.

For the compound `CC(C)C[C@@H]1NC(=O)[C@@H](Cc2ccccc2)NC(=O)[C@H](CCN)NC(=O)[C@@H](NC(=O)[C@H](CCN)NC(=O)[C@@H](NC(=O)[C@H](N)CSSCc2cccc(Cl)c2)[C@@H](C)O)CCNC(=O)[C@H]([C@@H](C)O)NC(=O)[C@H](CCN)NC(=O)[C@H](CCN)NC1=O` [drawing 121] (H-[dC](S(3-Cl-benzyl))T[Dab][Dab][Dab][dF]L[Dab][Dab]T; lactam 4-C), in the series on E. Coli (ATCC 25922), the “MIC E. Coli (ATCC 25922)” value turned out to be 1 µg/mL (≈ 0.818 µM). Further, the “MIC K. Pneumoniae (ATCC 13883)” value in series [3] amounted to 0.5 µg/mL (≈ 0.409 µM). Moreover, in series [2], the “PTEC Toxicity (relative to polymyxin B)” value was found to be 1.8.
